Our source for the IC50 values is patent publication US20260216196A1, “IMIDAZO[1,2-A]PYRIDINE AND IMIDAZO[1,2-A]PYRAZINE DERIVATIVES AS MLLT1 AND MLLT3 INHIBITORS” (DARK BLUE THERAPEUTICS LTD., priority 2022, published 2026).

One assay deals with MLLT1 (Homo sapiens, UniProt Q03111). Briefly: biochemical. To be noted: MLLT1 assay IC50 (nM), HTRF, 6His tagged MLLT1, biotinylated H3K9cro peptide; compound 20 μM to 20 nM, 11 data points in duplicate.
In the next assay the target is MLLT3 (Homo sapiens, UniProt P42568). Briefly: HTRF IC50 determination assay, MLLT3 / H3K9cro peptide displacement. Conditions: MLLT3 assay IC50 (nM), 6His tagged MLLT3, biotinylated H3K9cro peptide, compound 20 μM to 20 nM, 11 data points in duplicate.
Chain of MLLT3 (P42568 whole entry): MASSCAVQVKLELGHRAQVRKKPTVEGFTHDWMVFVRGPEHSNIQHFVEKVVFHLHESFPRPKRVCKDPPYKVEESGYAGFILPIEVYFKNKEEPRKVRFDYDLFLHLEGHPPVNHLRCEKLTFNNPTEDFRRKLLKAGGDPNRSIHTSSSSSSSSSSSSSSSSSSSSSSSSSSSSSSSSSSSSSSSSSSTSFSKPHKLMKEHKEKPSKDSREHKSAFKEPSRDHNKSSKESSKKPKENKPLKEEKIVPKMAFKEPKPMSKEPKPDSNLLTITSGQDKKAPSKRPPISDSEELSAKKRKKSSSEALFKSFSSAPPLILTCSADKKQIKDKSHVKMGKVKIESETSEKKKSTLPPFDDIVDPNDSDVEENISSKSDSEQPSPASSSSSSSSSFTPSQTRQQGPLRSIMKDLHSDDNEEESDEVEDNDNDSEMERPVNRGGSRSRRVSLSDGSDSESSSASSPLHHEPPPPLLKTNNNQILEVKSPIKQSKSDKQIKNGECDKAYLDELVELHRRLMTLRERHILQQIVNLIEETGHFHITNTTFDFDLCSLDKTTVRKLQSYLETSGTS

Chain of MLLT1 (Q03111 whole entry): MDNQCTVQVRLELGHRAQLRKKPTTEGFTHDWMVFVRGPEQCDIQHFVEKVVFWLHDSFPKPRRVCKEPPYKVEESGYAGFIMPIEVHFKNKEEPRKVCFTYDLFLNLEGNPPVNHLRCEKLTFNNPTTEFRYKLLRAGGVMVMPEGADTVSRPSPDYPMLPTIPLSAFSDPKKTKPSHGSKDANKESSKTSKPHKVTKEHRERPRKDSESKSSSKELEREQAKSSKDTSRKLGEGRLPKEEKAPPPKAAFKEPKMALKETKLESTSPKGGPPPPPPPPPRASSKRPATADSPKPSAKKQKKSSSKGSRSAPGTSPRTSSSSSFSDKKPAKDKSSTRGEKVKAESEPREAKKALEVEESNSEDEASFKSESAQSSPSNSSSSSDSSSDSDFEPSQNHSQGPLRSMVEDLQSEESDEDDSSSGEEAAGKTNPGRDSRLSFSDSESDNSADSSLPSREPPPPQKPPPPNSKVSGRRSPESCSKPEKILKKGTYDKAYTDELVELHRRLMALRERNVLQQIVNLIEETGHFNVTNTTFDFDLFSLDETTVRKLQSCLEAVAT

`CN1CCCC1c1cn2cc(NC(=O)c3cc(-c4cnccn4)ccc3F)ccc2n1` (single isomer, unassigned) [Example 24]: the values for the half-inhibitory concentration (IC50) at MLLT1 and on MLLT3 were 150 to 1500 nM and 1500 to 20000 nM, respectively.
For `Cc1ncc(-c2ccc(C(=O)Nc3ccc4nc(C5CCCN5C)cn4c3)c(F)c2)s1` (single isomer, unassigned) [Example 25], in that order: 150 to 1500 nM and 150 to 1500 nM.
With `CN1CCCC1c1cn2cc(NC(=O)c3cc4ccncc4cc3F)ccc2n1` (single isomer, unassigned) [Example 26], the IC50 on MLLT1 and at MLLT3 was 150 to 1500 nM in each case.
Consider `CN1CCCCC1c1cn2cc(NC(=O)c3ccc4c(cnn4C)c3)ccc2n1` (single isomer, unassigned) [Example 27], for which the 50% inhibitory concentration (IC50) (usually the concentration that gives 50% inhibition) is 1500 to 20000 nM on MLLT1 and more than 20000 nM at MLLT3.
On the same counts, the results for `CN1CCCCC1c1cn2cc(NC(=O)c3ccc4c(cnn4C)c3)ccc2n1` (single isomer, unassigned) [Example 28] are 150 to 1500 nM and 150 to 1500 nM.
On the same counts, the results for `CN1CCCC1c1cn2cc(NC(=O)c3ccc4c(cnn4C)c3)ccc2n1` (single isomer, unassigned) [Example 59] are 1500 to 20000 nM and 1500 to 20000 nM.
On the same counts, the results for `CN1CCCC1c1cn2cc(NC(=O)c3ccc4c(cnn4C)c3)ccc2n1` (single isomer, unassigned) [Example 60] are less than 150 nM and 150 to 1500 nM.
Turning to `Cc1nn(C)c2cc(C(=O)Nc3cn4cc(C5CN(C)CCN5C)nc4cn3)ccc12` (single isomer, unassigned) [Example 67], the IC50 on MLLT1 and at MLLT3 was 150 to 1500 nM throughout.
Regarding `Cc1nn(C)c2cc(C(=O)Nc3cn4cc([C@@H]5CCCN5C)nc4cn3)ccc12` (single isomer, unassigned) [Example 69], the concentration for half-maximal inhibition (IC50) on MLLT1 and at MLLT3 was 1500 to 20000 nM in each case.
`Cc1nn(C)c2cc(C(=O)Nc3cn4cc(C5CC(C)(C)CN5C)nc4cn3)ccc12` (single isomer, unassigned) [Example 81]: the concentration for half-maximal inhibition (IC50) on MLLT1 and at MLLT3 was 1500 to 20000 nM each time.
For the compound `Cc1nn(C)c2cc(C(=O)Nc3cn4cc(C5CC(C)(C)CN5C)nc4cn3)ccc12` (single isomer, unassigned) [Example 82], the IC50 on MLLT1 and at MLLT3 was less than 150 nM each time.
For the compound `CCN1CCCC1c1cn2cc(NC(=O)c3ccc4c(C)nn(C)c4c3)ncc2n1` (single isomer, unassigned) [Example 87, N-{2-[(rel-2R)-1-ethylpyrrolidin-2-yl]imidazo[1,2-a]pyrazin-6-yl}-1,3-dimethylindazole-6-carboxamide], the IC50 at MLLT1 and on MLLT3 was 150 to 1500 nM throughout.
Turning to `CCN1CCCC1c1cn2cc(NC(=O)c3ccc4c(C)nn(C)c4c3)ncc2n1` (single isomer, unassigned) [Example 88, N-{2-[(rel-2S)-1-ethylpyrrolidin-2-yl]imidazo[1,2-a]pyrazin-6-yl}-1,3-dimethylindazole-6-carboxamide], the IC50 at MLLT1 and at MLLT3 was 1500 to 20000 nM each time.
As to `CN1CCCC1c1cn2cc(NC(=O)c3ccc4scnc4c3)ccc2n1` (stereo not drawn) [Example 41], the IC50 against MLLT1 and on MLLT3 was 150 to 1500 nM each time.
On to `CN1C2CCCCC2C[C@@H]1c1cn2cc(NC(=O)c3ccc4c(cnn4C)c3)ccc2n1` (stereo partly drawn) [Example 58, 1-methyl-N-{2-[(2R)-1-methyl-octahydro-1H-indol-2-yl]imidazo[1,2-a]pyridin-6-yl}-1H-indazole-5-carboxamide], for which the half-maximal inhibitory concentration (IC50) at MLLT1 and at MLLT3 was 150 to 1500 nM each time.
In the case of `Cc1nn(C)c2cc(C(=O)Nc3cn4cc([C@H]5CCCN5C)nc4cn3)ccc12` [Example 70, 1,3-dimethyl-N-{2-[(2R)-1-methylpyrrolidin-2-yl]imidazo[1,2-a]pyrazin-6-yl}-1H-indazole-6-carboxamide], the concentration for half-maximal inhibition (IC50) on MLLT1 and on MLLT3 was 150 to 1500 nM in each case.
As for `CN1CCC[C@@H]1c1cn2cc(NC(=O)c3ccc4c(C5CC5)nn(C)c4c3)ncc2n1` [Example 71, 3-cyclopropyl-1-methyl-N-{2-[(2R)-1-methylpyrrolidin-2-yl]imidazo[1,2-a]pyrazin-6-yl}-1H-indazole-6-carboxamide], the half-maximal inhibitory concentration (IC50) on MLLT1 and at MLLT3 was 150 to 1500 nM throughout.
`CCc1nn(C)c2cc(C(=O)Nc3cn4cc([C@H]5CCCN5C)nc4cn3)ccc12` [Example 72, 3-ethyl-1-methyl-N-{2-[(2R)-1-methylpyrrolidin-2-yl]imidazo[1,2-a]pyrazin-6-yl}-1H-indazole-6-carboxamide]: the 50% inhibitory concentration (IC50) against MLLT1 and on MLLT3 was 150 to 1500 nM in each case.
For `Cc1nn(C)c2cc(C(=O)Nc3cn4cc([C@H]5CCCN5C)nc4cn3)c(F)cc12` [Example 73, 5-fluoro-1,3-dimethyl-N-{2-[(2R)-1-methylpyrrolidin-2-yl]imidazo[1,2-a]pyrazin-6-yl}-1H-indazole-6-carboxamide], the IC50 at MLLT1 and on MLLT3 was 150 to 1500 nM in each case.
Take `Cc1nn(C)c2cc(C(=O)Nc3cn4cc([C@H]5CCCN5)nc4cn3)ccc12` [Example 76, 1,3-dimethyl-N-[2-[(2R)-pyrrolidin-2-yl]imidazo[1,2-a]pyrazin-6-yl]indazole-6-carboxamide]: the values for the IC50 on MLLT1 and at MLLT3 were 150 to 1500 nM and 1500 to 20000 nM, respectively.
Consider `CN1C[C@@H](F)C[C@@H]1c1cn2cc(NC(=O)c3ccc4c(cnn4C)c3)ncc2n1` [Example 83, N-{2-[(2R,4S)-4-fluoro-1-methylpyrrolidin-2-yl]imidazo[1,2-a]pyrazin-6-yl}-1-methylindazole-5-carboxamide], for which the half-inhibitory concentration (IC50) against MLLT1 and at MLLT3 was 150 to 1500 nM in each case.
Consider `Cc1nc(NC(=O)c2cc3cnn(C)c3cc2F)cn2cc([C@H]3CCCN3C)nc12` [Example 91, 6-fluoro-1-methyl-N-{8-methyl-2-[(2R)-1-methylpyrrolidin-2-yl]imidazo[1,2-a]pyrazin-6-yl}indazole-5-carboxamide], for which the IC50 was less than 150 nM against MLLT1 and 150 to 1500 nM on MLLT3.
For `Cc1nc(NC(=O)c2cc3cnn(C)c3cc2Cl)cn2cc([C@H]3CCCN3C)nc12` [Example 92, (R)-6-chloro-1-methyl-N-(8-methyl-2-(1-methylpyrrolidin-2-yl)imidazo[1,2-a]pyrazin-6-yl)-1H-indazole-5-carboxamide], in that order: 1500 to 20000 nM and 1500 to 20000 nM.
For `Cc1nc(NC(=O)c2cc3cnc(C)n3cc2F)cn2cc([C@H]3CCCN3C)nc12` [Example 93, 6-fluoro-3-methyl-N-{8-methyl-2-[(2R)-1-methylpyrrolidin-2-yl]imidazo[1,2-a]pyrazin-6-yl}imidazo[1,5-a]pyridine-7-carboxamide], in that order: 150 to 1500 nM and 150 to 1500 nM.
For `Cc1nc(NC(=O)c2cc3c(C)nc(C)n3cc2F)cn2cc([C@H]3CCCN3C)nc12` [Example 94, 6-fluoro-1,3-dimethyl-N-{8-methyl-2-[(2R)-1-methylpyrrolidin-2-yl]imidazo[1,2-a]pyrazin-6-yl}imidazo[1,5-a]pyridine-7-carboxamide], in that order: 150 to 1500 nM and 150 to 1500 nM.
As for `CN1CCC[C@@H]1c1cn2cc(NC(=O)c3cc4cnn(C)c4cn3)ncc2n1` [Example 95, 1-methyl-N-{2-[(2R)-1-methylpyrrolidin-2-yl]imidazo[1,2-a]pyrazin-6-yl}pyrazolo[3,4-c]pyridine-5-carboxamide], the IC50 against MLLT1 and at MLLT3 was 1500 to 20000 nM each time.
Consider `COc1cc2c(cnn2C)cc1C(=O)Nc1cn2cc([C@H]3CCCN3C)nc2cn1` [Example 96, 6-methoxy-1-methyl-N-{2-[(2R)-1-methylpyrrolidin-2-yl]imidazo[1,2-a]pyrazin-6-yl}indazole-5-carboxamide], for which the IC50 against MLLT1 was 150 to 1500 nM; on MLLT3, 1500 to 20000 nM.
For `CN1CCC[C@@H]1c1cn2cc(NC(=O)c3ccc4nnn(C)c4c3)ncc2n1` [Example 97, 3-methyl-N-{2-[(2R)-1-methylpyrrolidin-2-yl]imidazo[1,2-a]pyrazin-6-yl}-1,2,3-benzotriazole-5-carboxamide], in that order: 150 to 1500 nM and 150 to 1500 nM.
On the same counts, the results for `CN1CCC[C@@H]1c1cn2cc(NC(=O)c3ccc4c(N5CCCCC5)nn(C)c4c3)ncc2n1` [Example 98, 1-methyl-N-{2-[(2R)-1-methylpyrrolidin-2-yl]imidazo[1,2-a]pyrazin-6-yl}-3-(piperidin-1-yl)indazole-6-carboxamide] are 150 to 1500 nM and 150 to 1500 nM.
For `CN1CCC[C@@H]1c1cn2cc(NC(=O)c3ccc4c(cnn4C)c3)nc(C3CC3)c2n1` [Example 99, N-[8-cyclopropyl-2-[(2R)-1-methylpyrrolidin-2-yl]imidazo[1,2-a]pyrazin-6-yl]-1-methyl-indazole-5-carboxamide], in that order: 150 to 1500 nM and 1500 to 20000 nM.
In the case of `Cc1nn(C)c2cc(C(=O)Nc3cn4cc([C@H]5CCCN5C)nc4c(C4CC4)n3)c(F)cc12` [Example 100, N-[8-cyclopropyl-2-[(2R)-1-methylpyrrolidin-2-yl]imidazo[1,2-a]pyrazin-6-yl]-5-fluoro-1,3-dimethyl-indazole-6-carboxamide], the half-inhibitory concentration (IC50) against MLLT1 and at MLLT3 was 150 to 1500 nM each time.
With `CN1CCC[C@@H]1c1cn2cc(NC(=O)c3cc4cnn(C)c4cc3F)ncc2n1` [Example 101, 6-fluoro-1-methyl-N-[2-[(2R)-1-methylpyrrolidin-2-yl]imidazo[1,2-a]pyrazin-6-yl]indazole-5-carboxamide], the IC50 against MLLT1 was less than 150 nM; at MLLT3 it was 150 to 1500 nM.
On the same counts, the results for `CN1CC2(CC2)C[C@@H]1c1cn2cc(NC(=O)c3ccc4c(cnn4C)c3)ncc2n1` [Example 102, 1-methyl-N-[2-[(6R)-5-methyl-5-azaspiro[2.4]heptan-6-yl]imidazo[1,2-a]pyrazin-6-yl]indazole-5-carboxamide] are less than 150 nM and 150 to 1500 nM.
